Each structure is given as a SMILES string. Where a SMILES comes first, the peptide text is derived from it. [ ]: non-standard residue; d: D form. The star is where a group is joined. Nle = CCCC[C@H](N)C(=O)O; Bz = O=C(c1ccccc1)*

Data on nine compounds can be found in ChEMBL document CHEMBL1158471, “Flaviviral protease inhibitors identified by fragment-based library docking into a structure generated by molecular dynamics” (J Med Chem, 2009).

Assay [1] has as its target T1, Genome polyprotein (West Nile virus, UniProt P06935). Nature of the assay: Inhibition of WNV NS2B-NS3 protease.
Assay [2] has as its target T1, Genome polyprotein. Nature of the assay: Binding affinity to WNV NS2B-NS3 protease measured as change of 1H chemical shift of Thr52 and Glu101 by NMR spectroscopy.
Assay [3] addresses T1, Genome polyprotein. Nature of the assay: Inhibition of WNV NS2B-NS3 protease by enzymatic assay.
Assay [4] concerns the target T1, Genome polyprotein. Briefly: Inhibition of WNV NS2B-NS3 protease by tryptophan fluorescence assay.
For assay [5], the target named is T1, Genome polyprotein. Nature of the assay: Binding affinity to WNV NS2B(K96A)-NS3 protease measured as change of 15N chemical shift of Ala36 by NMR spectroscopy.
The target of assay [6] is T1, Genome polyprotein. Briefly: Binding affinity to WNV NS2B(K96A)-NS3 protease measured as change of 15N chemical shift of Val100 by NMR spectroscopy.
The target of assay [7] is T1, Genome polyprotein. Briefly: Binding affinity to WNV NS2B(K96A)-NS3 protease measured as change of 15N chemical shift of Ser137 by NMR spectroscopy.
For assay [8], the target named is T1, Genome polyprotein. Nature of the assay: Binding affinity to WNV NS2B(K96A)-NS3 protease measured as change of 1H chemical shift of Glu101 by NMR spectroscopy.

The term Ki denotes the dissociation constant of the complex between target and ligand, obtained from inhibition or displacement. Lower therefore signals a stronger hold on the target. For the compound `Cc1ccc(C(NN=C(N)N)[PH](=O)O)cc1` (stereo not given), the affinity on Genome polyprotein [1], expressed as Ki, was 13 µM.

At Genome polyprotein [1], `NC(N)=N/N=C\c1ccc(/C=N\N=C(N)N)cc1` showed an inhibitory constant (Ki) of 35 µM. One may read the Kd as the concentration at which binding is half-saturated. For `Cc1cc(CSC(=N)N)c(C)cc1CSC(=N)N`, the equilibrium dissociation constant (Kd) on Genome polyprotein [2] amounted to 40 µM. A word on the IC50: it is the midpoint of a concentration-inhibition curve. Low readings indicate greater potency in that assay, high ones weaker potency in that assay. `CC1CNC(c2ccc(Nc3nnc(Nc4ccc(C5=NC(C)CN5)cc4)c4ccccc34)cc2)=N1` (stereo not given) came in with an IC50 on Genome polyprotein [1] of 24.5 µM. Turning to `N=C(N)Nc1ccc(C(=O)Oc2ccc([N+](=O)[O-])cc2)cc1`, at Genome polyprotein [3], the IC50 is 34.2 µM. In addition, on Genome polyprotein [4], binding was put at a Kd of 16 µM. Turning to `c1ccc2c(Nc3ccc4c(c3)CNCC4)nnc(Nc3ccc(C4=NCCN4)cc3)c2c1`, half-maximal inhibition against Genome polyprotein [1] (IC50) was put at 5.2 µM.

Consider `NCc1ccc(Nc2nnc(Nc3ccc(C4=NCCN4)cc3)c3ccccc23)cc1`, for which the concentration for half-maximal inhibition (IC50) against Genome polyprotein [1] is 10.6 µM.

Compound `CCCC[C@H](NC(=O)c1ccccc1)C(=O)N[C@@H](CCCCN)C(=O)N[C@@H](CCCNC(=N)N)C(=O)N[C@H](C=O)CCCNC(=N)N` (Bz-[Nle]KRR-aldehyde) yielded an IC50 against Genome polyprotein [1] of 4.1 µM. As for `N=C(N)c1cccc(NC(=O)Nc2cccc(C(=N)N)c2)c1` [AMICARBALIDE], half-maximal inhibition against Genome polyprotein [3] (IC50) required 2.8 µM. Further, the dissociation constant (Kd) at Genome polyprotein [4] was found to be 15 µM; on Genome polyprotein [5], 90 µM; at Genome polyprotein [6] it was 90 µM; on Genome polyprotein [7] it was 90 µM; on Genome polyprotein [8], 70 µM.
